Test results as given in ChEMBL document CHEMBL3045606, “Virtual screening and biochemical evaluation of the inhibitors of dual-specificity phosphatase 26” (Med Chem Res, 2013).

target: T1, Dual specificity protein phosphatase 26 (Homo sapiens, UniProt Q9BV47); test: Inhibition of DUSP26 (unknown origin)-mediated p38 dephosphorylation
T1 sequence (Q9BV47 whole entry): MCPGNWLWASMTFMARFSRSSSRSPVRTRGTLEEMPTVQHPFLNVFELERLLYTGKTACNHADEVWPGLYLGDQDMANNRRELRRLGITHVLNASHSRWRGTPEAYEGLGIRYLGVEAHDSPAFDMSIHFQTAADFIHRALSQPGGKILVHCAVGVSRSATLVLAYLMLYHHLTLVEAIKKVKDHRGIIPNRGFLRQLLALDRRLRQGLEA

| IC50 [µM] | Compound |
| --- | --- |
| 16.7 | O=S(=O)(O)c1ccc2cc(/N=N/c3cc(S(=O)(=O)O)c4cccnc4c3O)ccc2c1 |

target: T1, Dual specificity protein phosphatase 26; test: inhibition of Homo sapiens (human) recombinant DUSP26 catalytic domain (61 to 211 amino acid residues) overexpressed in Escherichia coli BL21 (DE3) assessed as hydrolysis of 3-ortho-methylfluorescein phosphate after 30 min by spectrofluorometric analysis

| IC50 [µM] | Compound |
| --- | --- |
| 17 | O=C(O)c1ccc(Cl)cc1Nc1nc2ccccc2nc1NS(=O)(=O)c1ccc(Cl)cc1 |
| 41.7 | CCN1C(=O)/C(=C/c2ccccc2OCc2ccccc2C#N)S/C1=N/c1ccc(C(=O)O)cc1 |
| 25.1 | O=C(O)c1cccc(N2C(=O)/C(=C\c3ccc(O)c(O)c3)SC2=S)c1 |
| > 100 | Cc1ccc(C2=C/C(=C\c3ccc(-c4cccc(C(=O)O)c4)o3)C(=O)O2)cc1 |
| 12.5 | CN1C(=O)/C(=C/c2ccc(OCc3cccc(F)c3)cc2)S/C1=N/c1cccc(C(=O)O)c1 |
| 26.9 | CN1C(=O)/C(=C/c2ccc(OCc3ccc(F)cc3)cc2)S/C1=N/c1cccc(C(=O)O)c1 |
| > 100 | O=C1OC(c2ccc(Cl)cc2)=C/C1=C\c1ccc(-c2cccc(C(=O)O)c2)o1 |
| 30.2 | C=CCOc1ccc(/C=C2\SC(=S)N(c3cccc(C(=O)O)c3)C2=O)cc1 |
| 36.6 | CCc1cc(CC)cc(OCCOc2ccccc2/C=C2/C(=O)NN(c3ccccc3)C2=O)c1 |
| 8.9 | O=C1OC(c2ccc(Cl)cc2)=C/C1=C\c1ccc(-c2ccc(Cl)c(C(=O)O)c2)o1 |
| 19.8 | CN1C(=O)/C(=C/c2ccc(OCc3cccc([N+](=O)[O-])c3)cc2)S/C1=N/c1cccc(C(=O)O)c1 |
| 26.3 | O=C(CN1C(=O)/C(=C\C=C\c2ccccc2)SC1=S)Nc1ccc(O)cc1C(=O)O |
| 22.3 | O=C(O)CCN1C(=O)/C(=C/c2cn(-c3ccccc3)nc2-c2cccc([N+](=O)[O-])c2)SC1=S |
